From article PMC3161871, “Heteroarylketones inhibit astroglial interleukin-6 expression via a STAT3/NF-κB signaling pathway” (Journal of Neuroinflammation, 2011)

What was measured:
[1] = system: IL-6 mRNA expression in U343 cells; experiment: OSM-induced IL-6 mRNA expression in U343 cells (qRT-PCR time course); assay type: cell-based, human; settings: 100 ng/ml OSM
Protocol: (§1) The human glioma cell line U343 [34] was maintained in DMEM containing 10% fetal bovine serum and 60 μg/ml gentamycin (Invitrogen, Darmstadt, Germany) at 37°C in a 10% CO2 atmosphere.
Total RNA of cultured cells and homogenized mouse brain tissue samples was isolated using RNA isolation kit "NucleoSpin RNA II" from Macherey and Nagel. RNA quantity was measured by spectrophotometrical quantification (NanoDrop 2000, Peqlab, Erlangen, Germany). Total RNA (0.5 μg) was transcribed to cDNA using Superscript III and oligo-dT primer (Invitrogen, Darmstadt, Germany). Quantitative real-time PCR was performed with QuantiFast SYBR Green PCR Master mix (Qiagen, Hilden, Germany) using Rotorgene 3000 system (Corbett, Sydney, Australia). Gene expression was normalized to the expression of three reference genes glyceraldehyde 3-phosphate dehydrogenase (GAPDH), glucose-6-phosphate dehydrogenase (G6PDH) and hypoxanthine-guanine phosphoribosyltransferase (HPRT). Primers for PREP (5'-[…]-3'; 5'- […]-3') and IL-6 (5'-AAAGGACGTCACATTGCA-3'; 5'-[…]-3') were designed using the Primer3 Software (http://frodo.wi.mit.edu/). Data were analyzed by Rotorgene 3000 Software version 6.0 by comparative quantitation. The appropriate size of PCR products was confirmed by gel-electrophoresis stained with ethidium bromide.
To analyze the time-course of OSM-induced IL-6 expression, U343 cells were incubated with OSM for different periods of time as indicated in figure 1B. Amounts of IL-6 mRNA and protein were subsequently quantified by qRT-PCR and by ELISA, respectively. […] Significant induction of IL-6 protein was detected in the conditioned medium as early as 3 h post stimulation and reaching a maximum at 24 h.
To reveal whether bioactivity of HAK compounds is based on suppression of IL-6 protein biosynthesis or on interference with IL-6 mRNA expression OSM-treated U343 cells were incubated with 20 μM of compound HAK-2 for different periods of time. […] Therefore, it is very likely that the relevant molecular target of HAK compounds is involved in the OSM-induced signal transduction process not earlier than 6 h after onset of the stimulation.
Figure 4 Time course of OSM-induced IL-6 mRNA expression in U343 cells treated with compound HAK-2. […] U343 cells were stimulated with 100 ng/ml OSM and treated with 0.1% DMSO as solvent control (solid line, black triangle) or 20 μM HAK-2 (dashed line, white triangle). Samples were harvested at time points indicated to extract total RNA. IL-6 mRNA expression was analyzed by qRT-PCR. All data points are presented as mean ± SD, and were obtained from experiments carried out in quadruplicate. Statistical analysis were performed between control and HAK-2 samples from same time point. ns, not significant; ***p < 0.001.

[2] = system: IL-6 release from U343 cells; experiment: Dose-dependent stimulation of IL-6 release by OSM in U343 cells (ELISA); assay type: cell-based, human; settings: U343 cells treated 24 h with OSM, ELISA of conditioned medium
Protocol: as §1
Measurements of IL-6 in conditioned medium and murine plasma samples were done by means of human- or murine-specific IL-6 Cytoset kits (Invitrogen, Darmstadt, Germany) according to manufacturer's protocols.
The dose- and time-dependent stimulation of IL-6 expression by OSM in U343 cells is characterized in figure 1. To analyze dose dependence of IL-6 release, U343 cells were treated for 24 hours with various concentrations of OSM followed by measurement of IL-6 protein concentrations in the conditioned medium by a specific ELISA. […] Therefore, all further investigations were performed with 100 ng/ml OSM. The highest dose of 200 ng/ml OSM led to 30-fold increase of IL-6 accumulation in the conditioned media in comparison to vehicle-treated cells.
Figure 1 OSM induces dose- and time-dependent IL-6 expression in human U343 glioma cells. OSM treatment leads to dose-dependent IL-6 release (A). U343 cells were stimulated with different concentrations of OSM as indicated. After 24 hours the conditioned medium was analyzed by IL-6-specific ELISA. […] IL-6 mRNA expression was analyzed by qRT-PCR (dotted line, black triangles) and IL-6 protein release by ELISA (solid line, black squares). […]

- EC50 of IL-6 release [2]: 0.0705 ± 0.02268 µg/mL
Substance: Oncostatin M [OSM, reference compound]
- IL-6 mRNA induction, first peak ([1]; 1 h post stimulation): 6.5 fold
- IL-6 mRNA induction, second peak ([1]; 16 h post stimulation): 5.5 fold
